In US20090099167A1, “Organic compounds” (Novartis Institutes for Biomedical Research, priority 2004, published 2009) one finds IC50 data, which are given here for 22 compounds.

One may read the IC50 as the concentration at which inhibition is half-maximal.

Like-named read-outs stand apart in the source and are kept apart here. Some results are limits rather than exact numbers.

For assay [1], the target named is T1, human EphB4 receptor (Homo sapiens, UniProt P54760).
T1 construct: made in house; host or cells: Sf9 or Sf21 (baculovirus)
T1 sequence (P54760 566-987): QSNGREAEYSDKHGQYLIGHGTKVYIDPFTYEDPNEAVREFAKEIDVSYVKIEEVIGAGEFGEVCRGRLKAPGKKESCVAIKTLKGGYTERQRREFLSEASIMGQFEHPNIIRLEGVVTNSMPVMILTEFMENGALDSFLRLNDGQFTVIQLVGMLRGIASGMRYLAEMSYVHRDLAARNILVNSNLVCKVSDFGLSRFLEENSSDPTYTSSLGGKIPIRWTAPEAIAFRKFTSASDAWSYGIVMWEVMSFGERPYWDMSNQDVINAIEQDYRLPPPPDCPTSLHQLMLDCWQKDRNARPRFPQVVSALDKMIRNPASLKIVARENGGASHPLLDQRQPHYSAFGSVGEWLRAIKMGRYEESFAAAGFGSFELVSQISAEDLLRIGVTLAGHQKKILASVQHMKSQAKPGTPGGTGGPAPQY
In words: EphB4 kinase assay, GST-EphB, 33P incorporation into poly(Glu,Tyr). The format is biochemical. The source says: EphB4: Production and measure of enzymatic activity: Generation of Bac-to-Bac™ (Initrogen Life Technologies, Basel, Switzerland) GST-fusion expression vectors: Entire cytoplasmatic coding regions of the EphB-class are amplified by PCR from cDNA libraries derived from human placenta or brain, respectively. Recombinant baculovirus are generated that express the amino acid region 566-987 of the human EphB4 receptor (SwissProt Database, Accession No. P54760). GST sequence is cloned into pFastBac1® vector (Invitrogen Life Technologies, Basel, Switzerland) and PCR amplified. cDNAs encoding EphB4-receptor domains, respectively, are cloned in frame 3′prime to the GST sequence into this modified FastBac1 vector to generate pBac-to-Bac™ donor vectors. Single colonies arising from the transformation are inoculated to give overnight cultures for small scale plasmid preparation. […] By automated sequencing the inserts and approximately 50 bp of the flanking vector sequences are confirmed on both strands. Production of viruses: Viruses for each of the kinases are made according to the protocol supplied by GIBCO if not stated otherwise. In brief, transfer vectors containing the kinase domains are transfected into the DH10Bac cell line (GIBCO) and plated on selective agar plates. Colonies without insertion of the fusion sequence into the viral genome (carried by the bacteria) are blue. Single white colonies are picked and viral DNA (bacmid) isolated from the bacteria by standard plasmid purification procedures. Sf9 cells or Sf21 cells are then transfected in 25 cm2 flasks with the viral DNA using Cellfectin reagent according to the protocol. Purification of GST-tagged kinases: The centrifuged cell lysate is loaded onto a 2 mL glutathione-sepharose column (Pharmacia) and washed three times with 10 mL of 25 mM Tris-HCl, pH 7.5, 2 mM EDTA, 1 mM DTT, 200 mM NaCl. The GST-tagged proteins are then eluted by 10 applications (1 mL each) of 25 mM Tris-HCl, pH 7.5, 10 mM reduced-glutathione, 100 mM NaCl, 1 mM DTT, 10% Glycerol and stored at −70° C. Protein kinase assays: The activities of protein kinases are assayed in the presence or absence of inhibitors, by measuring the incorporation of 33P from [γ33P]ATP into a polymer of glutamic acid and tyrosine (poly(Glu,Tyr)) as a substrate. The kinase assays with purified GST-EphB (30 ng) are carried out for 15-30 min at ambient temperature in a final volume of 30 μL containing 20 mM Tris.HCl, pH 7.5, 10 mM MgCl2, 3-50 mM MnCl2, 0.01 mM Na3VO4, 1% DMSO, 1 mM DTT, 3 μg/mL poly(Glu,Tyr) 4:1 (Sigma; St. Louis, Mo., USA) and 2.0-3.0 μM ATP (γ-[33P]-ATP 0.1 μCi). The assay is terminated by the addition of 20 μL of 125 mM EDTA. Subsequently, 40 μl of the reaction mixture are transferred onto Immobilon-PVDF membrane (Millipore, Bedford, Mass., USA) previously soaked for 5 min with methanol, rinsed with water, then soaked for 5 min with 0.5% H3PO4 and mounted on vacuum manifold with disconnected vacuum source. After spotting all samples, vacuum is connected and each well rinsed with 200 μl 0.5% H3PO4. Membranes are removed and washed 4× on a shaker with 1.0% H3PO4, once with ethanol. Membranes are counted after drying at ambient temperature, mounting in Packard TopCount96-well frame, and addition of 10 μL/well of Microscint™ (Packard). IC50 values are calculated by linear regression analysis of the percentage inhibition of each compound in duplicate, at four concentrations (usually 0.01, 0.1, 1 and 10 μM). One unit of protein kinase activity is defined as 1 nmole of 33P ATP transferred from [γ33P] ATP to the substrate protein per minute per mg of protein at 37° C. Compounds of formula I show EphB4 inhibition down to 10 nM, preferably IC50 values between 0.01-1.0 μM.

Assay [2] has as its target c-Src kinase (Homo sapiens, UniProt P12931). In words: c-Src kinase inhibition. The class given is biochemical. The source says: An appropriate assay is described in Andrejauskas-Buchdunger et al., Cancer Res. 52, 5353-8 (1992).
Setting [3] is: Table 4, read-out: EphB4, activity (IC50 for kinase inhibition).
The mark [4] stands for this setting: Table 5, read-out: EphB4, IC50 class.
Where [5] appears, read: Table 5, read-out: c-scr, IC50 class.

Sequence of c-Src kinase (P12931 whole entry): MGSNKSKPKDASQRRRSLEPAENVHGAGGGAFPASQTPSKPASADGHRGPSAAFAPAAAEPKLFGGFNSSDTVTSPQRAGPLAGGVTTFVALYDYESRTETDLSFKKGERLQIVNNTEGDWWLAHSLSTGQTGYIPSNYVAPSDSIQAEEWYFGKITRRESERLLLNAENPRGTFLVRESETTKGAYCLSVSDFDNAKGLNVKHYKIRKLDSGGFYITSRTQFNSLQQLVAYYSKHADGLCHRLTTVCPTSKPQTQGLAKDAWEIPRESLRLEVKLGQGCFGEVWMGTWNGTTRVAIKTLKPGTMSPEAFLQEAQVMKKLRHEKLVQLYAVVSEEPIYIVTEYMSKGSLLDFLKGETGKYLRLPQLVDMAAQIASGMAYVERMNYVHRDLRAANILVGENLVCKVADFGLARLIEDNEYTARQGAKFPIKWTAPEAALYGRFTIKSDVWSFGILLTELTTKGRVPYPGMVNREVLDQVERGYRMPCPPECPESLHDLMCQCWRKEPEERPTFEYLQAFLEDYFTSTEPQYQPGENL

In the case of `CN1CCN(c2ccc(-c3cnn4c(N)c(-c5cccc(O)c5)cnc34)cc2)CC1` [Example 1, 3-{7-Amino-3-[4-(4-methyl-piperazin-1-yl)-phenyl]-pyrazolo[1,5-a]pyrimidin-6-yl}-phenol], in assay [1] (setting [3]), the IC50 is less than 10000 nM. Take `CN1CCN(c2cccc(-c3cnn4c(N)c(-c5cccc(O)c5)cnc34)c2)CC1` [Example 29, 3-{7-Amino-3-[3-(4-methyl-piperazin-1-yl)-phenyl]-pyrazolo[1,5-a]pyrimidin-6-yl}-phenol]: the IC50 in assay [1] (setting [3]) was less than 10000 nM. Turning to `Nc1c(-c2cccc(O)c2)cnc2c(-c3cccnc3)cnn12` [Example 46, 3-[7-Amino-3-pyridin-3-yl-pyrazolo[1,5-a]pyrimidin-6-yl]-phenol], in assay [1] (setting [3]), the IC50 was less than 10000 nM.

With `COc1ccccc1-c1cnn2c(N)c(-c3cccc(O)c3)cnc12` [Example 48, 3-[7-Amino-3-(2-methoxy-phenyl)-pyrazolo[1,5-a]pyrimidin-6-yl]-phenol], the IC50 is less than 10000 nM in assay [1] (setting [3]) and less than 10000 nM in assay [2] (Table 4, read-out: s-Scr, activity (IC50 for kinase inhibition)). Consider `COc1cccc(-c2cnn3c(N)c(-c4cccc(O)c4)cnc23)c1` [Example 60, 3-[7-Amino-3-(3-methoxy-phenyl)-pyrazolo[1,5-a]pyrimidin-6-yl]-phenol], for which, in assay [1] (setting [3]), the IC50 was less than 10000 nM. For the compound `Cc1nc2c(-c3cccc(N4CCN(C)CC4)c3)cnn2c(N)c1-c1cccc(Cl)c1` [Example 72, 6-(3-Chloro-phenyl)-5-methyl-3-[3-(4-methyl-piperazin-1-yl)-phenyl]-pyrazolo[1,5-a]pyrimidin-7-ylamine], the IC50 in assay [1] (setting [4]) and in assay [2] (setting [5]) was less than 1000 nM each time. In the case of `Cc1nc2c(-c3ccc(N4CCN(C)CC4)cc3)cnn2c(N)c1-c1cccc(Cl)c1` [Example 73, 6-(3-Chloro-phenyl)-5-methyl-3-[4-(4-methyl-piperazin-1-yl)-phenyl]-pyrazolo[1,5-a]pyrimidin-7-ylamine], the IC50 in assay [1] (setting [4]) and in assay [2] (setting [5]) was less than 1000 nM in each case. Turning to `COc1cc(N2CCN(C)CC2)ccc1-c1cnn2c(N)c(-c3cccc(Cl)c3)c(C)nc12` [Example 75, 6-(3-Chloro-phenyl)-3-[2-methoxy-4-(4-methyl-piperazin-1-yl)-phenyl]-5-methyl-pyrazolo[1,5-a]pyrimidin-7-ylamine], the IC50 in assay [1] (setting [4]) was less than 1000 nM.

Regarding `COc1cc(N2CCN(C)CC2)ccc1-c1cnn2c(N)c(-c3cccc(O)c3)cnc12` [Example 76, 3-{7-Amino-3-[2-methoxy-4-(4-methyl-piperazin-1-yl)-phenyl]-pyrazolo[1,5-a]pyrimidin-6-yl}-phenol], the IC50 in assay [1] (setting [4]) was less than 1000 nM. The same measure, in the same setting: the result for `CN1CCN(c2ccc(-c3cnn4c(N)c(-c5ccccc5Cl)cnc34)cc2)CC1` [Example 77, 6-(2-Chloro-phenyl)-3-[4-(4-methyl-piperazin-1-yl)-phenyl]-pyrazolo[1,5-a]pyrimidin-7-ylamine] reads less than 1000 nM; that for `CN1CCN(c2cccc(-c3cnn4c(N)c(-c5ccccc5Cl)cnc34)c2)CC1` [Example 78, 6-(2-Chloro-phenyl)-3-[3-(4-methyl-piperazin-1-yl)-phenyl]-pyrazolo[1,5-a]pyrimidin-7-ylamine], less than 1000 nM. Consider `Cc1nc2c(-c3ccc(N4CCN(C)CC4)cc3)cnn2c(N)c1-c1ccc(F)cc1` [Example 79, 6-(4-Fluoro-phenyl)-5-methyl-3-[4-(4-methyl-piperazin-1-yl)-phenyl]-pyrazolo[1,5-a]pyrimidin-7-ylamine], for which the IC50 in assay [1] (setting [4]) and in assay [2] (setting [5]) was less than 1000 nM in each case. As to `Cc1nc2c(-c3cccc(N4CCN(C)CC4)c3)cnn2c(N)c1-c1ccc(F)cc1` [Example 80, 6-(4-Fluoro-phenyl)-5-methyl-3-[3-(4-methyl-piperazin-1-yl)-phenyl]-pyrazolo[1,5-a]pyrimidin-7-ylamine], the IC50 in assay [1] (setting [4]) and in assay [2] (setting [5]) was less than 1000 nM each time. In the case of `Cc1nc2c(-c3cccc(N4CCN(C5CCN(C)CC5)CC4)c3)cnn2c(N)c1-c1cccc(Cl)c1` [Example 81, 6-(3-Chloro-phenyl)-5-methyl-3-{3-[4-(1-methyl-piperidin-4-yl)-piperazin-1-yl]-phenyl}-pyrazolo[1,5-a]pyrimidin-7-ylamine], the IC50 in assay [1] (setting [4]) and in assay [2] (setting [5]) was less than 1000 nM throughout.

For `Cc1nc2c(-c3cccc(N4CCN(C)CC4)c3)cnn2c(N)c1-c1ccc(F)c(Cl)c1` [Example 82, 6-(3-Chloro-4-fluoro-phenyl)-5-methyl-3-[3-(4-methyl-piperazin-1-yl)-phenyl]pyrazolo[1,5-a]pyrimidin-7-ylamine], the IC50 in assay [1] (setting [4]) and in assay [2] (setting [5]) was less than 1000 nM each time. For `Cc1nc2c(-c3ccc(N4CCN(C)CC4)cc3)cnn2c(N)c1-c1ccc(F)c(Cl)c1` [Example 83, 6-(3-Chloro-4-fluoro-phenyl)-5-methyl-3-[4-(4-methyl-piperazin-1-yl)-phenyl]-pyrazolo[1,5-a]pyrimidin-7-ylamine], the IC50 in assay [1] (setting [4]) and in assay [2] (setting [5]) was less than 1000 nM each time. On to `Cc1nc2c(-c3cccc(N4CCN(C)CC4)c3)cnn2c(N)c1-c1cccc(Br)c1` [Example 84, 6-(3-Bromo-phenyl)-5-methyl-3-[3-(4-methyl-piperazin-1-yl)-phenyl]-pyrazolo[1,5-a]pyrimidin-7-ylamine], for which the IC50 in assay [1] (setting [4]) and in assay [2] (setting [5]) was less than 1000 nM in each case. In the case of `CN1CCN(c2cccc(-c3cnn4c(N)c(Cc5cccc(Br)c5)cnc34)c2)CC1` [Example 85, 6-(3-Bromo-benzyl)-3-[3-(4-methyl-piperazin-1-yl)-phenyl]pyrazolo[1,5-a]pyrimidin-7-ylamine], the figures for the IC50 in assay [1] (setting [4]) and in assay [2] (setting [5]) were 1000 to 10000 nM and less than 1000 nM, respectively.

`CN1CCN(c2cccc(-c3cnn4c(N)c(-c5cccc(Br)c5)cnc34)c2)CC1` [Example 86, 6-(3-Bromo-phenyl)-3-[3-(4-methyl-piperazin-1-yl)-phenyl]-pyrazolo[1,5-a]pyrimidin-7-ylamine]: the values for the IC50 in assay [1] (setting [4]) and in assay [2] (setting [5]) were 1000 to 10000 nM and less than 1000 nM, respectively. For the compound `Cc1nc2c(-c3cccc(N4CCOCC4)c3)cnn2c(N)c1-c1cccc(Cl)c1` [Example 87, 6-(3-Chloro-phenyl)-5-methyl-3-(3-morpholin-4-yl-phenyl)-pyrazolo[1,5-a]pyrimidin-7-ylamine], the IC50 in assay [2] (setting [5]) was less than 1000 nM. `COc1ccc(-c2cnn3c(N)c(-c4cccc(Cl)c4)c(C)nc23)cc1` [Example 88, 6-(3-Chloro-phenyl)-3-(4-methoxy-phenyl)-5-methyl-pyrazolo[1,5-a]pyrimidin-7-ylamine]: the half-maximal inhibitory concentration (IC50) in assay [1] (setting [4]) and in assay [2] (setting [5]) was less than 1000 nM each time.

With `COc1ccc(-c2cnn3c(N)c(-c4cccc(Cl)c4)c(CF)nc23)cc1OC` [Example 92, 6-(3-Chloro-phenyl)-3-(3,4-dimethoxy-phenyl)-5-fluoromethyl-pyrazolo[1,5-a]pyrimidin-7-ylamine], in assay [1] (setting [4]), the IC50 was less than 1000 nM.
